The record followed here is article PMC6920776, “Exploring Biological Activity of 4-Oxo-4H-furo[2,3-h]chromene Derivatives as Potential Multi-Target-Directed Ligands Inhibiting Cholinesterases, β-Secretase, Cyclooxygenase-2, and Lipoxygenase-5/15” (Biomolecules, 2019).

Assay [1] in a line: DPPH radical scavenging assay. The note with it: 45 min in the dark, triplicate. How it is done: The DPPH radical scavenging activity of compounds 2a–i and 3a–i was evaluated following the literature method by Zhu et al.. The compounds were evaluated against ascorbic acid (Sigma Aldrich, Saint Louis, Missouri, USA) as a positive control. Various concentrations of the test compounds and control (0 µM to 40 µM) in DMSO were mixed with a solution of DPPH (0.20 mM) in methanol. The mixtures were incubated in the dark for 45 min and then the absorbances were recorded at 512 nm using Varioskan flash microplate spectrophotometer reader. All tests and analyses were run in triplicate and averaged. The inhibition was calculated in terms of percentage using the formula below: DPPH radical scavenged (%)=AbC − AbS/AbC×100 where AbC is absorbance of control and AbS the absorbance of the test sample.

The next assay deals with T1, BChE (Homo sapiens, UniProt P06276).
T1 construct: purchased Cloud-Clone Corp., through BIOCOM Africa (Pty) Ltd RPC348Hu0 2_100
Briefly: biochemical. The note with it: Ellman's method, triplicate.

The next assay addresses AChE (Homo sapiens, UniProt P22303). Put plainly: biochemical. Conditions: for Selectivity index (SI): SI = IC50 (AChE)/IC50 (BChE); for IC50: recombinant human AChE, Ellman's method, triplicate.
The next assay deals with T2, human LOX-5 (Homo sapiens, UniProt P09917).
T2 construct: purchased BioVision K980
T2 sequence (P09917 1-674): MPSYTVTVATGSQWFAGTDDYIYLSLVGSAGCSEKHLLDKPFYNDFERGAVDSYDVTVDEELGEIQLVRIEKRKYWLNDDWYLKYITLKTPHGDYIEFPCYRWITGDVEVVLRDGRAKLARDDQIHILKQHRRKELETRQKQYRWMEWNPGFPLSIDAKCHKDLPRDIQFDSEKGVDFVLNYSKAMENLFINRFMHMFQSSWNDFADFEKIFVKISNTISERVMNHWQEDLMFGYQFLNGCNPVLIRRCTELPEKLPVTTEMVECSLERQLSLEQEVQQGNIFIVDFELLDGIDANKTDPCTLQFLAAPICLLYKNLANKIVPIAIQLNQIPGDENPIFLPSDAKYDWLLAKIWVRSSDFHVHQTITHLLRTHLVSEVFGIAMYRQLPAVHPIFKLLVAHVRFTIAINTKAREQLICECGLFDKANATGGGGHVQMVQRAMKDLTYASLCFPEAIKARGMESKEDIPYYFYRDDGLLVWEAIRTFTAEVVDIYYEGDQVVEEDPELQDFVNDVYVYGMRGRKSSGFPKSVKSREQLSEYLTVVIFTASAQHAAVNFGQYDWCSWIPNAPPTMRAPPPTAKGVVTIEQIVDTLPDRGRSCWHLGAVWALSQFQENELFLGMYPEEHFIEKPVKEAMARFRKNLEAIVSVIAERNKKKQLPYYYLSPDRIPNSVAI
Put plainly: Human LOX-5 inhibitory assay. The assay is classed as biochemical.

The next assay deals with T3, COX-2 (Homo sapiens, UniProt P35354).
T3 construct: purchased Bio Vision K547
T3 sequence (P35354 18-604): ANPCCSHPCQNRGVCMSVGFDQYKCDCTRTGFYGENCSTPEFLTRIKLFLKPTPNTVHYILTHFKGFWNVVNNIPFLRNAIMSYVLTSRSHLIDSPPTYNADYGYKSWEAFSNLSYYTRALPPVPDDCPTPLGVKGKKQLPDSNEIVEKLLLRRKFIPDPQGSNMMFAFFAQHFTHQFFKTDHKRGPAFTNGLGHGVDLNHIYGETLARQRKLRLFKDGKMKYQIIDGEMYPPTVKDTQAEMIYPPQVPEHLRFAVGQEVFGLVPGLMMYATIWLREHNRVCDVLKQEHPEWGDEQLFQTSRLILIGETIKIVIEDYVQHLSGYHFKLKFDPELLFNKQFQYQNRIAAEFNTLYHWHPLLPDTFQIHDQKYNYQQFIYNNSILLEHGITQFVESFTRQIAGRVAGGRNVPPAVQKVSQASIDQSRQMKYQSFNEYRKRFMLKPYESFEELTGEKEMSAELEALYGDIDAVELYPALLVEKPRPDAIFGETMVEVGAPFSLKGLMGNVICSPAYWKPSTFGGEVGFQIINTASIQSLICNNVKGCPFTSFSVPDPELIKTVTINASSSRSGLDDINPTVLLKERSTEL
Briefly: biochemical. The note with it: duplicate runs.

For assay [2], the target named is T4, soybean lipoxygenases-15 (LOX-15) (Glycine max, UniProt P08170).
T4 construct: purchased Cayman Chemicals 760700
T4 sequence (P08170 1-839): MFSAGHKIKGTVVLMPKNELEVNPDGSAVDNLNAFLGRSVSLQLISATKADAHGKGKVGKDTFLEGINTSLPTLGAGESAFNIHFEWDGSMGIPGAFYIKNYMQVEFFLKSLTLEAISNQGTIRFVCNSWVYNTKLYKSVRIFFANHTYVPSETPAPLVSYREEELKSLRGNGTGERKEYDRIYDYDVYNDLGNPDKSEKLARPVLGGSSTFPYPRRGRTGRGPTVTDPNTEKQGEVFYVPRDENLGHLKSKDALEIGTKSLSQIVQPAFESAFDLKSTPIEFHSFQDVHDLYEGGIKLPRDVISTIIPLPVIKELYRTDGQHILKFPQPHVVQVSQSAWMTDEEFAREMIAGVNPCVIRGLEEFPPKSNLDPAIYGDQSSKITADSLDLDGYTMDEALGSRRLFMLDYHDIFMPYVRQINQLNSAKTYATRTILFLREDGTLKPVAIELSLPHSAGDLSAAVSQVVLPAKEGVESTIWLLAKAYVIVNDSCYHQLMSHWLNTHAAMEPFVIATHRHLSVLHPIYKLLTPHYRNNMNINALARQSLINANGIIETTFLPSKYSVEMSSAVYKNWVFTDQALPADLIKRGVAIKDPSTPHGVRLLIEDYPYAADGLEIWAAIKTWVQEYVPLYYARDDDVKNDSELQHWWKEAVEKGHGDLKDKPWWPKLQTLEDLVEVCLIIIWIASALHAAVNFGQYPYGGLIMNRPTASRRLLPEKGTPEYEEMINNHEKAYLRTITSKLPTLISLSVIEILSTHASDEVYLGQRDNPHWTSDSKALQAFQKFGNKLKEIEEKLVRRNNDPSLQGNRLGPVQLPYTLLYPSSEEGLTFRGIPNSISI
Briefly: Soybean LOX-15 inhibitory assay. In kind it is biochemical.
Protocol: Stock solutions of the test samples prepared in DMSO were further diluted with 50 mM Tris buffer of pH 7.7 to obtain concentrations of 0.01, 0.1, 1, 10, and 100 µM. The cells of a 96-well plate where arranged as follows: two wells taken as blanks (100 µL 50mM Tris buffer pH, 7.7), two wells taken as enzyme controls (90 µL of 15-LO Standard and 10 µL of DMSO), and two as 100% initial activity wells (90 µL lipoxygenase enzyme solution and 10 µL tris buffer). Then, 90 µL of lipoxygenase enzyme solution and 10 µL of each test compound (and reference standards) from the above concentrations were added to the other wells of a 96-well plate, and the plate was incubated for 5 min at room temperature. The reaction was initiated by addition of 10 µL of the arachidonic acid to each well containing the assay mixtures. The 96-well plate was shaken for 5 min on a shaker, and 100 µL of the chromogen (solution of equal volume developing reagent 1 and 2) was added to each well to initiate the reaction. The plate was again shaken for 5 min and the absorbance read at 490 nm in a Varioskan flash microplate spectrophotometer reader. The inhibitory concentration was expressed as a percentage using the formula below. Inhibitory concentration = AInitial activity −(ASample − ABlank sample)/AInitial activity×100 where ASample is the absorbance of the reaction mixture of the test sample, ABlank sample is the absorbance of the reaction mixture containing all reagents except enzyme, and AInitial activity is the absorbance of 100% initial activity.

Assay [3] has as its system breast cancer MCF-7 cell line. Put plainly: MTT antigrowth assay, MCF-7. In kind it is cell-based. Conditions: Homo sapiens, MCF7, 24 h treatment, preliminary results, read-out: IC50 antigrowth effect, MCF-7.
Protocol: Briefly, the Hek293-T cells and MCF-7 cancer cells were seeded in a 96-well plate at a density of 20 × 10^3 cells per well, and then incubated at 37 °C in 5% CO2 to allow cell attachment. The medium was removed and replaced with fresh medium containing various concentrations of the test sample and doxorubicin hydrochloride (10, 25, 50, 100, and 200 μM) and incubated for 24 h. After treatment for 24 h, 10 μL MTT (5 mg/mL) was added to each well and the plate was further incubated for 4 h. The supernatant was removed, and 100 μL of DMSO was added to each well to dissolve the resulting formazan crystals. The absorbance was read at 570 nm using the Varioskan flash microplate spectrophotometer reader and the cell viability. The percentages of cell viability were used to determine the IC50 values.

“And” between values parts separate entries of the source, which are not always exact repeats. Equal values may be shown once. Where a name gives a salt, the structure may show the parent alone.

T1 sequence (P06276 29-602): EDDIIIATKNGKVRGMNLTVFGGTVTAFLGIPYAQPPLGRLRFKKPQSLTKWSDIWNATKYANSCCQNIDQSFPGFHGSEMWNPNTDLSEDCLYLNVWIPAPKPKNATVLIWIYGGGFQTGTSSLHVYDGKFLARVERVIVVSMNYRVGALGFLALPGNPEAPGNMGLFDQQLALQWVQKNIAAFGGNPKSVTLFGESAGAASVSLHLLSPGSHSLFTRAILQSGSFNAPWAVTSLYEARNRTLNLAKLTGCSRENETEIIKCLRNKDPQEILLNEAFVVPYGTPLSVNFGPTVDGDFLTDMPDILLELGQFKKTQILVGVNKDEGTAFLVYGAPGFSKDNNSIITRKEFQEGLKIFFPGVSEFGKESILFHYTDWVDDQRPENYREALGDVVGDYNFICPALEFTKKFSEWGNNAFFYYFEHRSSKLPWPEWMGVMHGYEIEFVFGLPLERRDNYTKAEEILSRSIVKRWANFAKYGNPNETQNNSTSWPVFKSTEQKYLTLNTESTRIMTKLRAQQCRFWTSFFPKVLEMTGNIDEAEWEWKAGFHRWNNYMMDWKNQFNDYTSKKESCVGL
AChE, sequence (P22303 32-614): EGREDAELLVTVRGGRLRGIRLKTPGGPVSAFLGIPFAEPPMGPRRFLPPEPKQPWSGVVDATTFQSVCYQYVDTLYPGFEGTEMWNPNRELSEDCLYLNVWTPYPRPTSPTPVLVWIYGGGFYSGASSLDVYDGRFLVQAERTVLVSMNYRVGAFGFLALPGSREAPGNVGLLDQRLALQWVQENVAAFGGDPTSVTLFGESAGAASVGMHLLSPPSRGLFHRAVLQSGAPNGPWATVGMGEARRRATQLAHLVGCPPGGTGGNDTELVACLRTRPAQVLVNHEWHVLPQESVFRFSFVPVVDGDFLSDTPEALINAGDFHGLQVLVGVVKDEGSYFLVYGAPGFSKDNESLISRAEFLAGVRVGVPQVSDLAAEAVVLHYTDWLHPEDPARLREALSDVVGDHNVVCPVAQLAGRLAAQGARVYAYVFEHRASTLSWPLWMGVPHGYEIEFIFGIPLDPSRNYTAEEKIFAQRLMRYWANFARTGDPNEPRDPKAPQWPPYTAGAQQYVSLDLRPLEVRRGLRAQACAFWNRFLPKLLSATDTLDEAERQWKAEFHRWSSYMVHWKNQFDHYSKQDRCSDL
Protocol for BChE: Their anti-AChE and BChE activities were determined by spectrophotometric Ellman’s method [42]. […] The mixtures were incubated for 15 min at RT. The reaction was initiated by adding 10 µL of a mixture solution of 5 mM 5,50-dithio-bis-nitrobenzoic acid (DTNB) in 50 mM tris buffer (pH 7.7) and 10 µL acetylthiocholine (ASCh) (5 mM) in 50 mM tris buffer, pH 7.7. The hydrolysis of ASCh was determined by monitoring the formation of the yellow 5-thio-2-nitrobenzoate anion resulting from reaction of DTNB with thiocholines (SCh).
The IC50 values were determined graphically from inhibition curves (inhibitor concentration and absorbance) using the graph pad prism.
Protocol for COX-2: The reagents for the COX-2 assay were prepared according to the standard protocol enclosed in the Cyclooxygenase inhibitor screening kit (Item No. K547; Bio Vision, Milpitas Blvd, Milpitas, CA USA). […] The assay mixtures in a 96-well plate were distributed as follows: two wells taken as enzyme control (10µL assay buffer) and two wells as inhibitor control (2 µL of celecoxib and 8 µL of COX assay buffer). Ten microliters of the test compounds concentrations and those of celecoxib were added to the remaining wells with the aid of a multi-channel pipette. Then, 80 µL of the reaction mix (a mixture of 76 µL COX assay buffer, 1 µL of COX probe, 2 µL of diluted COX cofactor and 1 µL of COX-2 enzyme) were added to the reaction mixture. The assay mixtures in the 96-well plate were incubated for 5 min. The reactions were initiated by the addition of 10 µL of diluted arachidonic acid and sodium hydroxide solution (10 µL of arachidonic acid and 90 µL of sodium hydroxide) to each well. The absorbance was measured using a Varioskan flash microplate spectrophotometer, and the IC50 was calculated with the aid of a graph pad prism
Protocol for human LOX-5: The reagents were prepared according to the Lipoxygenase inhibitor screening kit (Item No. K980; BioVision, Milpitas Blvd, Milpitas, CA, USA) standard protocol. Stock solutions of the test compounds were prepared in DMSO, and further diluted with 50 mM Tris HCl buffer (pH 7.7) to obtain final concentrations of 0.01, 0.1, 1, 5, and 10 µM. […] The wells of a 96-well plate were arranged as follows: two wells were taken as blanks (40 µL of assay buffer) and two as enzyme controls (2 µL of LOX-5 Standard and 38 µL of tris buffer). Two microliters (2 µL) of the test compounds (various concentration of test compounds and reference standards, respectively) followed by 38 µL of LOX assay buffer were added to the other wells of the 96-well plate in duplicate. Then, 40 µL of the reaction mixture (prepared by mixing thoroughly 36 µL of LOX assay buffer, 2 µL of LOX probe and 2 µL of LOX-5 enzyme) was added to each well containing the test mixtures, and the wells were incubated for 10 min at RT. The DMSO concentration in each reaction well was 1% to prevent enzyme structural deformation and, therefore, reduced activity. […] The percentage inhibition (%) was calculated using the equation below.
% Inhibition = Control − Test/Control×100

As for `COc1cc(OC)cc(-c2cc3c(ccc4c(=O)c(C=O)coc43)o2)c1` [Compound 2g, 8-(3,5-Dimethoxyphenyl)-4-oxo-4H-furo[2,3-h]chromene-3-carbaldehyde], the IC50 in assay [1] stood at 8.3 ± 0.02 µM; at BChE it was 23.2 ± 0.04 µM; on AChE, 25.3 ± 0.02 µM; against human LOX-5, 24.6 ± 0.02 µM; against COX-2 it was 23.5 ± 0.03 µM; in assay [2] it was 10.6 ± 0.04 µM. For the same molecule, on AChE, the “Selectivity index (SI)” value is recorded as 1.1.
As to `COc1cccc2c1C(=O)c1c(O)c3c(c(O)c1C2=O)C[C@@](O)(C(=O)CO)C[C@@H]3O[C@H]1C[C@H](N)[C@H](O)[C@H](C)O1` [doxorubicin hydrochloride, reference compound], the IC50 in assay [3] was 1.59 ± 0.01 µM.
Regarding `O=Cc1coc2c(ccc3oc(-c4ccc(F)cc4)cc32)c1=O` [Compound 2c, 8-(4-Fluorophenyl)-4-oxo-4H-furo[2,3-h]chromene-3-carbaldehyde], the IC50 stood at 7.5 ± 0.02 µM in assay [1]; 28.3 ± 0.03 µM at BChE; 30.4 ± 0.01 µM at AChE; 15.8 ± 0.03 µM at COX-2; 14.3 ± 0.01 µM in assay [2]. Further, at AChE, the “Selectivity index (SI)” value turned out to be 1.1.
`Cc1ccc(-c2cc3c(ccc4c(=O)c(C=NNc5ccc(C(F)(F)F)cc5)coc43)o2)cc1` [Compound 3h]: the IC50 in assay [1] amounted to 16.3 ± 0.03 µM; at BChE, 14.2 µM; at AChE it was 9.1 ± 0.02 µM; against COX-2 it was 22.4 ± 0.01 µM; in assay [2], 18.6 ± 0.03 µM. In addition, the “Selectivity index (SI)” value at AChE came to 0.6.
Consider `O=Cc1coc2c(ccc3oc(-c4cccc(F)c4)cc32)c1=O` [Compound 2b, 8-(3-Fluorophenyl)-4-oxo-4H-furo[2,3-h]chromene-3-carbaldehyde], for which the IC50 in assay [1] came to 27.6 ± 0.02 µM; at BChE, 9.2 ± 0.01 µM; on AChE it was 15.2 ± 0.03 µM; against COX-2 it was 43.7 ± 0.01 µM; in assay [2], 18.6 ± 0.01 µM. The “Selectivity index (SI)” value on AChE is on record as 1.7.
In the case of `Cc1ccc(-c2cc3c(ccc4c(=O)c(C=O)coc43)o2)cc1` [Compound 2h, 8-(4-Methyphenyl)-4-oxo-4H-furo[2,3-h]chromene-3-carbaldehyde], the IC50 in assay [1] is 11.6 ± 0.03 µM; against BChE, 25.9 ± 0.03 µM; at AChE it was 20.9 ± 0.01 µM; at human LOX-5, 28.7 ± 0.03 µM; at COX-2, 19.8 ± 0.03 µM; in assay [2] it was 9.2 ± 0.03 µM. For the same molecule, the “Selectivity index (SI)” value on AChE was 0.8.
Consider `O=Cc1coc2c(ccc3oc(-c4ccc(Cl)cc4)cc32)c1=O` [Compound 2e, 8-(4-Chlorophenyl)-4-oxo-4H-furo[2,3-h]chromene-3-carbaldehyde], for which the IC50 in assay [1] stood at 19.9 ± 0.01 µM; against BChE, 32.6 ± 0.02 µM; on AChE it was 27.1 ± 0.04 µM; against COX-2, 18.6 ± 0.01 µM; in assay [2] it was 15.2 ± 0.04 µM. The “Selectivity index (SI)” value at AChE came to 0.8.
On to `O=c1c(C=NNc2ccc(C(F)(F)F)cc2)coc2c1ccc1oc(-c3ccccc3)cc12` [Compound 3a], for which the IC50 came to 15.3 ± 0.01 µM in assay [1]; 18.7 ± 0.03 µM at BChE; 15.4 ± 0.01 µM on AChE; 29.7 ± 0.02 µM against COX-2; 16.3 ± 0.01 µM in assay [2]. Moreover, the “Selectivity index (SI)” value at AChE worked out at 0.8.
Take `O=Cc1coc2c(ccc3oc(C4=CCCCC4)cc32)c1=O` [Compound 2i, 8-(Cyclohex-1-en-1-yl)-4-oxo-4H-furo[2,3-h]chromene-3-carbaldehyde]: the IC50 in assay [1] was determined as 15.9 ± 0.02 µM; against BChE it was 31.6 ± 0.02 µM; on AChE it was 15.3 ± 0.03 µM; against COX-2, 12.1 ± 0.01 µM; in assay [2], 21.5 ± 0.02 µM. In addition, the “Selectivity index (SI)” value on AChE came to 0.5.
Consider `O=c1c(C=NNc2ccc(C(F)(F)F)cc2)coc2c1ccc1oc(-c3cccc(Cl)c3)cc12` [Compound 3d], for which the IC50 stood at 32.5 ± 0.03 µM in assay [1]; 30.1 ± 0.03 µM against BChE; 24.3 ± 0.03 µM on AChE; 30.2 ± 0.03 µM on COX-2; 11.8 ± 0.03 µM in assay [2]. Further, the “Selectivity index (SI)” value at AChE is on record as 0.8.
For the molecule `O=C1O[C@H]([C@@H](O)CO)C(O)=C1O` [Ascorbic acid, ascorbic acid, reference compound], the IC50 in assay [1] was determined as 4.6 ± 0.01 µM.
Take `O=Cc1coc2c(ccc3oc(-c4ccccc4)cc32)c1=O` [Compound 2a, 4-Oxo-8-phenyl-4H-furo[2,3-h]chromene-3-carbaldehyde]: the IC50 in assay [1] turned out to be 10.1 ± 0.03 µM; against BChE it was 34.2 ± 0.02 µM; at AChE, 25.1 ± 0.04 µM; against COX-2, 25.6 ± 0.01 µM; in assay [2] it was 12.5 ± 0.03 µM. Further, the “Selectivity index (SI)” value on AChE is recorded as 0.8.
For `O=Cc1coc2c(ccc3oc(-c4cccc(Cl)c4)cc32)c1=O` [Compound 2d, 8-(3-Chlorophenyl)-4-oxo-4H-furo[2,3-h]chromene-3-carbaldehyde], the IC50 in assay [1] was 29.1 ± 0.01 µM; against BChE, 13.2 ± 0.05 µM; on AChE, 19.2 µM and 19.8 µM; against COX-2, 23.1 ± 0.02 µM; in assay [2], 22.9 ± 0.02 µM. In addition, the “Selectivity index (SI)” value on AChE amounted to 1.5.
Turning to `COc1ccc(-c2cc3c(ccc4c(=O)c(C=O)coc43)o2)cc1` [Compound 2f, 8-(4-Methoxyphenyl)-4-oxo-4H-furo[2,3-h]chromene-3-carbaldehyde], the IC50 was 14.3 ± 0.02 µM in assay [1]; 21.8 ± 0.02 µM against BChE; 34.2 ± 0.02 µM on AChE; 17.3 ± 0.01 µM at human LOX-5; 13.7 ± 0.04 µM against COX-2; 8.2 ± 0.03 µM in assay [2]. The “Selectivity index (SI)” value on AChE was found to be 1.6.
